Assay results: patent US6379959B1, “Metalocarboxypeptidase inhibitors and derived molecules used as antitumor agents” (Universitat Autonoma de Barcelona, priority 1996, dated 2002)
Positions of bridges follow the written chain, without caps; N, C: chain ends. No end group written: not given here.

Key:
[1] = test system: human pancreatic adenocarcinoma cell line IBF-CP3; assay: Proliferation test by recount of the cells number (hemocytometer), IBF-CP3; type: cell-based
Protocol: In this assay and with the aim of determining whether the presence in the culture medium produces some effect on the growth in vitro of the cell lines, the final number of the cells when the control reaches monolayer is determined, in the presence and in the absence of the inhibitor. The calculation is made by direct recount of the number of cells using trypsinization and subsequent recount in a hemocytometer. The detailed method is as follows:
1. In each of the three culture flasks of 25 cm^2, 5×10^5 cells are seed and a total volume of the culture medium is added (DMEM with a 10% of fetal bovine serum or synthetic serum, according to the test) of 5 mL:
A first flask is used as control and no PCI is added to it.
PCI is added to a second flask some hours after the culture has started and once the cells have adhered to the bottom of the flask. This type of test is defined as postadherence test.
PCI is added to a third flask at the same time as the culture has begun, before the cells have had time to adhere to the bottom of the flask, thus constituting the preadherence test.
2. The cells are maintained in an incubator at 37° C., 87% of relative humidity and 10% of CO2. The medium contained in the flasks is changed every 3-4 days. Medium free of PCI is added to the control flask; medium with PCI is added to the other two.
3. When the culture of one of the flasks reaches a state of monolayer (or after a specific number of days), we proceed to count the number of cells in each one of them. Firstly and in order to do that, the cells are trypsinized using the following steps:
Immediately after, the recount of the number of cells is done. To do that, an aliquot of 10 μL is taken and it is placed in an eppendorf tube. 10 μL of a solution of trypan blue dye is added. Then, it is well mixed and two aliquots of 10 μL of the mixture are taken and placed in the two zones of an hemocytometer which is placed in the inverted microscope.
The live cells are observed as being refringent and clear, while the dead ones are observed as opaque and dyed blue, for the staining is only able to penetrate dead cells. The total number of cells of the W zone of the hemocytometer is counted, differentiating between the live and the dead ones. Based on this recount, the total number of cells that was in the initial suspension (which will be the total number of cells that was in the culture) is calculated by multiplying the number obtained by 2×10^4. The viability (in %) is calculated by dividing the number of live cells by the total number of counted cells and multiplying it by 100.
The effect produced by the presence of PCI in the medium is expressed as % of cell growth inhibition, which is calculated according to the formula [formula] […]

β2-microglobuline = assay: Gene expression analysis by Northern transfer, β2-microglobuline probe; type: cell-based, human; settings: 12 days, Capan-1 (control 955)
Protocol: To verify whether the PCI plays any role in signal transduction, studies of gene expression were carried out by Northern transfer. The probes were: β2-microglobulin, p53 and trypsin. The β2-microglobulin is a constitutive gene that is used as a sample loading control in the gel. p53 is a transcription factor which, among other functions, controls the state of the genomic DNA and the cell cycle (Bates, S. & Vousden, K. H. (1996) Curr. Opin. Genet. Develop., 6: 12-19). If the DNA is damaged, p53 induces its repair and, if it is excessively damaged, it provokes programmed cellular death (apoptosis). Trypsin is a marker of pancreatic cells of the acinar type. The trypsin is not expressed by all the tumoral cells and it is believed that it is expressed by the cells with metastatic power and/or invasive power (Fernández, E. et al., (1994) Cancer, 73: 2285-2295). The probes employed are described as follows:
In the first place, 3×10^6 cells of the human pancreatic adenocarcinoma cell line Capan-1 were placed in each one of the 12 flasks of 150 cm^2. […] They were maintained in culture for 12 days period, changing their medium every 4 days, adding fresh PCI. […]
The quantifying of the hybridized filters with the respective probes was done using a Betascope 601 blot Analyzer counter (Betagen, USA). […]

[2] = test system: human pancreatic adenocarcinoma cell line Capan-1; settings: 16 days
Protocol: Two kinds of tests were carried out; the first one is the treatment of cells of the human pancreatic adenocarcinoma cell line Capan-1 with wtPCI and tail added to the culture medium in absence of serum.
In a culture plate with 96 wells, 5,000 cells were seed per well, in 24 of them. The cells were placed in full medium (DMEM+10%FBS).
In 6 wells (control): 200 μL of serum-free medium (DMEM-FBS) and free of tail were added.
200 μL of serum-free medium with 50 μg/mL of native PCI were added.
In 6 wells, 200 μL of serum-free medium with 0.128 μg of tail/mL were added.
In 6 wells, serum-free medium with 6.4 μg of tail/mL was added.
The medium contained in the wells was changed every 3-4 days. The old medium was sucked out using a Pasteur pipette.
After 16 days, the cell growth per well was evaluated according to the method detailed in the protocol of Section 4.B.2.a.

Substance: PCI: potato carboxypeptidase inhibitor, isoform IIa, obtained by recombinant DNA techniques in E. coli (SEQ ID NO.2) (EQHADPICNKPCKTHDDCSGAWFCQACWNSARTCGPYVG; disulfide 12-27, 18-34, 8-24)
- Percentage of Growth Inhibition ([1]; 5 mg PCI/mL, Postadhesion): 23.7 ± 19.3%
- Percentage of Growth Inhibition ([1]; 5 mg PCI/mL, Preadhesion, DMEM+10%BMS until controls confluent): 20.4 ± 14.2%
- Percentage of Growth Inhibition ([1]; 10 mg PCI/mL, Postadhesion): 15.1 ± 8.3%
- Percentage of Growth Inhibition ([1]; 10 mg PCI/mL, Preadhesion): 11.6 ± 8.5%
- beta counts, β2-microglobuline probe (β2-microglobuline; 1 mg/mL PCI): 2183
- beta counts, β2-microglobuline probe (β2-microglobuline; 10 mg/mL PCI): 6287
- Growth (Percentage in relation to the average of the controls) ([2]; 50 mg/mL wtPCI, serum-free medium): 107.6%
- growth of Capan-1 cells ([2]; wtPCI in serum-free medium): not altered
